Test system: 598228-144-R-J1-PDC complex spheroid viability
Experiment: Anticancer human tumor 598228-144-R-J1-PDC patient-derived serous endometrial adenocarcinoma cell line growth inhibition [GQUAD]
Conditions: for IC50: curve of first compound; for viability, T/C: stronger effect = lower value
Outline: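 Multi-cell-type spheroids of tumor cells with HUVEC and mesenchymal stem cells, treated with drug combinations. Concentrations descend in half-log steps from near clinical Cmax, or from 10 microM where Cmax is unknown; viability read-out.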

[1] = second compound 0.0316 µM, first compound 0.0316 µM
[2] = second compound 0.0316 µM, first compound 0.1 µM
[3] = second compound 0.0316 µM, first compound 0.316 µM
[4] = second compound 0.0316 µM, first compound 1 µM
[5] = second compound 0.0316 µM, first compound 3.16 µM
[6] = second compound 0.0316 µM, first compound 10 µM
[7] = second compound 0.1 µM, first compound 0.0316 µM
[8] = second compound 0.1 µM, first compound 0.1 µM
[9] = second compound 0.1 µM, first compound 0.316 µM
[10] = second compound 0.1 µM, first compound 1 µM
[11] = second compound 0.1 µM, first compound 3.16 µM
[12] = second compound 0.1 µM, first compound 10 µM
[13] = second compound 0.316 µM, first compound 0.0316 µM
[14] = second compound 0.316 µM, first compound 0.1 µM
[15] = second compound 0.316 µM, first compound 0.316 µM
[16] = second compound 0.316 µM, first compound 1 µM
[17] = second compound 0.316 µM, first compound 3.16 µM
[18] = second compound 0.316 µM, first compound 10 µM
[19] = second compound 1 µM, first compound 0.0316 µM
[20] = second compound 1 µM, first compound 0.1 µM
[21] = second compound 1 µM, first compound 0.316 µM
[22] = second compound 1 µM, first compound 1 µM
[23] = second compound 1 µM, first compound 3.16 µM
[24] = second compound 1 µM, first compound 10 µM
[25] = second compound 3.16 µM, first compound 0.0316 µM
[26] = second compound 3.16 µM, first compound 0.1 µM
[27] = second compound 3.16 µM, first compound 0.316 µM
[28] = second compound 3.16 µM, first compound 1 µM
[29] = second compound 3.16 µM, first compound 3.16 µM
[30] = second compound 3.16 µM, first compound 10 µM
[31] = second compound 10 µM, first compound 0.0316 µM
[32] = second compound 10 µM, first compound 0.1 µM
[33] = second compound 10 µM, first compound 0.316 µM
[34] = second compound 10 µM, first compound 1 µM
[35] = second compound 10 µM, first compound 3.16 µM
[36] = second compound 10 µM, first compound 10 µM
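Further: spheroids exposed to the agents for one week before reading.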
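Wherever viability, T/C is given: percent of vehicle DMSO control viability so 100% = untreated growth.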

Structure (SMILES): Cc1cccc(N(C)C(=O)C2C(O)CCN2c2nc(C)cc(C(F)(F)F)c2C#N)c1 (stereo unspecified) + CN(C)c1ccc(Nc2c3ccc(NC(=O)CCN4CCCC4)cc3nc3cc(NC(=O)CCN4CCCC4)ccc23)cc1
- IC50 (second compound 0.0316 µM): > 10000 nM
- IC50 (second compound 0.1 µM): > 10000 nM
- IC50 (second compound 0.316 µM): > 10000 nM
- IC50 (second compound 1 µM): > 10000 nM
- IC50 (second compound 3.16 µM): > 10000 nM
- IC50 (second compound 10 µM): 3950 nM
- viability, T/C [1]: 114%
- viability, T/C [2]: 96.9%
- viability, T/C [3]: 98.3%
- viability, T/C [4]: 105%
- viability, T/C [5]: 91.5%
- viability, T/C [6]: 103%
- viability, T/C [7]: 103%
- viability, T/C [8]: 107%
- viability, T/C [9]: 107%
- viability, T/C [10]: 108%
- viability, T/C [11]: 103%
- viability, T/C [12]: 84.9%
- viability, T/C [13]: 94%
- viability, T/C [14]: 124%
- viability, T/C [15]: 100%
- viability, T/C [16]: 125%
- viability, T/C [17]: 118%
- viability, T/C [18]: 113%
- viability, T/C [19]: 98.5%
- viability, T/C [20]: 114%
- viability, T/C [21]: 106%
- viability, T/C [22]: 101%
- viability, T/C [23]: 106%
- viability, T/C [24]: 111%
- viability, T/C [25]: 114%
- viability, T/C [26]: 106%
- viability, T/C [27]: 106%
- viability, T/C [28]: 95.2%
- viability, T/C [29]: 108%
- viability, T/C [30]: 86.4%
- viability, T/C [31]: 96.6%
- viability, T/C [32]: 78.7%
- viability, T/C [33]: 107%
- viability, T/C [34]: 86.5%
- viability, T/C [35]: 55.2%
- viability, T/C [36]: 29.1%

Structure (SMILES): Cn1ncnc1[C@H]1c2n[nH]c(=O)c3cc(F)cc(c23)N[C@@H]1c1ccc(F)cc1 + CN(C)c1ccc(Nc2c3ccc(NC(=O)CCN4CCCC4)cc3nc3cc(NC(=O)CCN4CCCC4)ccc23)cc1
- IC50 (second compound 0.0316 µM): > 316 nM
- IC50 (second compound 0.1 µM): > 316 nM
- IC50 (second compound 0.316 µM): > 316 nM
- IC50 (second compound 1 µM): > 316 nM
- IC50 (second compound 3.16 µM): > 316 nM
- IC50 (second compound 10 µM): > 316 nM
- viability, T/C (second compound 0.0316 µM, first compound 0.000999 µM): 118%
- viability, T/C (second compound 0.0316 µM, first compound 0.00316 µM): 93.2%
- viability, T/C (second compound 0.0316 µM, first compound 0.00999 µM): 103%
- viability, T/C [1]: 86.3%
- viability, T/C (second compound 0.0316 µM, first compound 0.0999 µM): 80.8%
- viability, T/C [3]: 76.8%
- viability, T/C (second compound 0.1 µM, first compound 0.000999 µM): 104%
- viability, T/C (second compound 0.1 µM, first compound 0.00316 µM): 97.5%
- viability, T/C (second compound 0.1 µM, first compound 0.00999 µM): 100%
- viability, T/C [7]: 80.8%
- viability, T/C (second compound 0.1 µM, first compound 0.0999 µM): 87.8%
- viability, T/C [9]: 76.2%
- viability, T/C (second compound 0.316 µM, first compound 0.000999 µM): 106%
- viability, T/C (second compound 0.316 µM, first compound 0.00316 µM): 108%
- viability, T/C (second compound 0.316 µM, first compound 0.00999 µM): 100%
- viability, T/C [13]: 106%
- viability, T/C (second compound 0.316 µM, first compound 0.0999 µM): 87.6%
- viability, T/C [15]: 62%
- viability, T/C (second compound 1 µM, first compound 0.000999 µM): 101%
- viability, T/C (second compound 1 µM, first compound 0.00316 µM): 97.3%
- viability, T/C (second compound 1 µM, first compound 0.00999 µM): 114%
- viability, T/C [19]: 110%
- viability, T/C (second compound 1 µM, first compound 0.0999 µM): 95.7%
- viability, T/C [21]: 81.2%
- viability, T/C (second compound 3.16 µM, first compound 0.000999 µM): 112%
- viability, T/C (second compound 3.16 µM, first compound 0.00316 µM): 112%
- viability, T/C (second compound 3.16 µM, first compound 0.00999 µM): 91.8%
- viability, T/C [25]: 80.7%
- viability, T/C (second compound 3.16 µM, first compound 0.0999 µM): 93.1%
- viability, T/C [27]: 69.8%
- viability, T/C (second compound 10 µM, first compound 0.000999 µM): 91.7%
- viability, T/C (second compound 10 µM, first compound 0.00316 µM): 86.3%
- viability, T/C (second compound 10 µM, first compound 0.00999 µM): 96.2%
- viability, T/C [31]: 68.7%
- viability, T/C (second compound 10 µM, first compound 0.0999 µM): 73.2%
- viability, T/C [33]: 53.7%

Structure (SMILES): Nc1ccn(C2OC(CO)C(O)C2(F)F)c(=O)n1 (stereo unspecified) + CN(C)c1ccc(Nc2c3ccc(NC(=O)CCN4CCCC4)cc3nc3cc(NC(=O)CCN4CCCC4)ccc23)cc1
- IC50 (second compound 0.0316 µM): < 31.6 nM
- IC50 (second compound 0.1 µM): < 31.6 nM
- IC50 (second compound 0.316 µM): 38.9 nM
- IC50 (second compound 1 µM): 75.5 nM
- IC50 (second compound 3.16 µM): 91.7 nM
- IC50 (second compound 10 µM): < 31.6 nM
- viability, T/C [1]: 49.8%
- viability, T/C [2]: 42.5%
- viability, T/C [3]: 39.4%
- viability, T/C [4]: 36.3%
- viability, T/C [5]: 39.8%
- viability, T/C [6]: 37.5%
- viability, T/C [7]: 52.4%
- viability, T/C [8]: 41.9%
- viability, T/C [9]: 38.6%
- viability, T/C [10]: 43.2%
- viability, T/C [11]: 57.3%
- viability, T/C [12]: 49.5%
- viability, T/C [13]: 49.3%
- viability, T/C [14]: 51.6%
- viability, T/C [15]: 43.3%
- viability, T/C [16]: 43.2%
- viability, T/C [17]: 45.8%
- viability, T/C [18]: 43.6%
- viability, T/C [19]: 60.8%
- viability, T/C [20]: 51.3%
- viability, T/C [21]: 35.4%
- viability, T/C [22]: 33.1%
- viability, T/C [23]: 41.5%
- viability, T/C [24]: 43.4%
- viability, T/C [25]: 58.8%
- viability, T/C [26]: 45.5%
- viability, T/C [27]: 49.7%
- viability, T/C [28]: 37.5%
- viability, T/C [29]: 45.6%
- viability, T/C [30]: 36.4%
- viability, T/C [31]: 44.1%
- viability, T/C [32]: 28.5%
- viability, T/C [33]: 29.6%
- viability, T/C [34]: 26.2%
- viability, T/C [35]: 24%
- viability, T/C [36]: 26.9%

— PubChem BioAssay AID2060506 (Molecular Pharmacology Branch, DTP, NCI, 2025)
